Values quoted from earlier work in US20230243817A1, “USES, METHODS AND PRODUCTS RELATING TO OLIGOMERIC LIPOPOLYSACCHARIDE BINDING PROTEINS” (priority 2020, published 2023).

B1: LPS binding protein: human LPS immune receptor (protein, UniProt P18428 26-481, looked up)
Lipopolysaccharide-binding …: ANPGLVARITDKGLQYAAQEGLLALQSELLRITLPDFTGDLRIPHVGRGRYEFHSLNIHSCELLHSALRPVPGQGLSLSISDSSIRVQGRWKVRKSFFKLQGSFDVSVKGISISVNLLLGSESSGRPTVTASSCSSDIADVEVDMSGDLGWLLNLFHNQIESKFQKVLESRICEMIQKSVSSDLQPYLQTLPVTTEIDSFADIDYSLVEAPRATAQMLEVMFKGEIFHRNHRSPVTLLAAVMSLPEEHNKMVYFAISDYVFNTASLVYHEEGYLNFSITDDMIPPDSNIRLTTKSFRPFVPRLARLYPNMNLELQGSVPSAPLLNFSPGNLSVDPYMEIDAFVLLPSSSKEPVFRLSVATNVSATLTFNTSKITGFLKPGKVKVELKESKVGLFNAELLEALLNYYILNTFYPKFNDKLAEGFPLPLLKRVQLYDLGLQIHKDFLFLGANVQYMRV

Details: for Kd: read-out: KD for LPS

Row | Molecule | Kd [µM] | Reported binding affinity (depending on the bacterial strain)
1 | MD-2: human LPS immune receptor | 2.33 | 
2 | TLR4: human LPS immune receptor | 141 | 
3 | polymyxin B [reference compound] | 48 | micromolar range
4 | B1 | 0.0035 | 
